Legend:
[1] = system: human lung cancer NCI-H460 cells; assay: In vivo pharmacodynamics, NCI-H460 subcutaneous xenograft model; parameters: species or system BALB/c nude mice; settings: for Relative tumor volume (x ± S) / T/C (%) / TGI (%) / Tumor volume (x ± S): QWx3, i.v.; for Tumor volume (x ± S): in mm³ (unit assumed)
[2] = system: human lung cancer NCI-H460 cells; assay: as above; parameters: species or system BALB/c nude mice; settings: Day 31
Experimental: BALB/c nude mice were subcutaneously inoculated with human lung cancer NCI-H460 cells to establish a subcutaneous transplantation tumor model of human lung cancer.
The pharmacodynamic analysis of each group in the NCI-H460 CDX model was performed on Day 31 after tumor cell inoculation, and the results were shown in Table 10.

[3] = system: HuPrime model LU2505 human lung cancer; assay: In vivo pharmacodynamics, lung cancer LU2505 PDX model; parameters: species or system BALB/c nude mice; settings: for Tumor volume (x ± S): in mm³ (unit assumed)
SNU354 = assay: Cytotoxicity on hepatocellular carcinoma cell line SNU354; format: cell-based
Experimental: If not otherwise specified, IC50 values were measured by the following experimental methods:
a) Cells were plated for 24 hours, and then the compounds acted singly. 99 μL of growth medium was supplemented per well, and then 1 μL of 200× compound was added, gently shaken to ensure uniform mixing, and then placed in a 37° C., 5% CO2 incubator.
b) The cell plate was placed in the incubator for 72 hours.
b) 100 μL of CTG reagent (CelltiterGlo kit) was added to each well, the plate was placed in a rapid oscillator and shaken for 2 minutes, and then placed at room temperature for 30 minutes away from light.
The IC50 was calculated using GraphPad Prism 8 software and the IC50 (half inhibitory concentration) of the compounds was obtained using the following non-linear fitting formula: […]
Using the same experimental methods as described above, Compounds A, B and C were further tested for cytotoxicity against different hepatocellular carcinoma (HCC) cell lines SNU354, SNU886, MHCC97H and huH-1, and the results were shown in Table 2 below: […]

O=[N+]([O-])c1ccc(C(OP(=O)(N2CC2)N2CC2)C(F)(F)F)cc1Oc1ccc(-c2ccc(F)cc2)c(F)c1 (racemic) [Compound A]
Tumor volume ([1]; 5 mg/kg i.v., Day 7): 144.35 mm^3 | Tumor volume ([1]; 5 mg/kg i.v., Day 10): 183.15 mm^3 | Tumor volume ([1]; 5 mg/kg i.v., Day 14): 198.80 mm^3 | Tumor volume ([1]; 5 mg/kg i.v., Day 17): 228.87 mm^3 | Tumor volume ([1]; 5 mg/kg i.v., Day 21): 253.30 mm^3 | Tumor volume ([1]; 5 mg/kg i.v., Day 24): 310.83 mm^3 | Tumor volume ([1]; 5 mg/kg i.v., Day 28): 279.31 mm^3 | Tumor volume ([1]; 5 mg/kg i.v., Day 31): 337.78 mm^3 | Tumor volume ([1]; 5 mg/kg i.v., Day 35): 452.75 mm^3 | Relative tumor volume (x ± S) ([1]; 5 mg/kg, Day 31): 2.45 ± 0.29 | T/C (%) ([1]; 5 mg/kg, Day 31): 18.51% | TGI (%) ([1]; 5 mg/kg, Day 31): 81.49% | Tumor volume (x ± S) ([1]; 5 mg/kg, Day 31): 337.78 ± 54.37 | Tumor volume ([1]; 10 mg/kg i.v., Day 7): 144.21 mm^3 | Tumor volume ([1]; 10 mg/kg i.v., Day 10): 164.75 mm^3 | Tumor volume ([1]; 10 mg/kg i.v., Day 14): 151.95 mm^3 | Tumor volume ([1]; 10 mg/kg i.v., Day 17): 140.29 mm^3 | Tumor volume ([1]; 10 mg/kg i.v., Day 21): 138.66 mm^3 | Tumor volume ([1]; 10 mg/kg i.v., Day 24): 144.36 mm^3 | Tumor volume ([1]; 10 mg/kg i.v., Day 28): 149.16 mm^3 | Tumor volume ([1]; 10 mg/kg i.v., Day 31): 164.13 mm^3 | Tumor volume ([1]; 10 mg/kg i.v., Day 35): 168.68 mm^3 | Relative tumor volume (x ± S) ([1]; 10 mg/kg, Day 31): 1.18 ± 0.27 | TGI (%) ([1]; 10 mg/kg, Day 31): 91.06% | Tumor volume ([1]; 15 mg/kg i.v., Day 7): 145.41 mm^3 | Tumor volume ([1]; 15 mg/kg i.v., Day 10): 171.22 mm^3 | Tumor volume ([1]; 15 mg/kg i.v., Day 14): 167.54 mm^3 | Tumor volume ([1]; 15 mg/kg i.v., Day 17): 161.80 mm^3 | Tumor volume ([1]; 15 mg/kg i.v., Day 21): 157.66 mm^3 | Tumor volume ([1]; 15 mg/kg i.v., Day 24): 151.20 mm^3 | Tumor volume ([1]; 15 mg/kg i.v., Day 28): 134.73 mm^3 | Tumor volume ([1]; 15 mg/kg i.v., Day 35): 108.70 mm^3 | T/C (%) ([1]; 15 mg/kg, Day 31): 6.94% | Tumor volume (x ± S) ([1]; 15 mg/kg, Day 31): 125.90 ± 25.46 | effect on body weights ([1]; 5, 10, 15 mg/kg, at least 31 days): no significant effect on the body weights | T/C (%) ([2]; 10 mg/kg, QWx3, i.v.): 8.94% | Tumor volume (x ± S) ([2]; 10 mg/kg, QWx3, i.v., in mm³ (unit assumed)): 164.13 ± 34.01 | Tumor volume ([2]; 15 mg/kg i.v.): 125.90 mm^3 | Relative tumor volume (x ± S) ([2]; 15 mg/kg, QWx3, i.v.): 0.92 ± 0.22 | TGI (%) ([2]; 15 mg/kg, QWx3, i.v.): 93.06% | Relative tumor volume (x ± S) ([3]; 1.25 mg/kg i.v. QWx3, Day 28): 4.61 ± 1.57 | T/C (%) ([3]; 1.25 mg/kg i.v. QWx3, Day 28): 43.14% | TGI (%) ([3]; 1.25 mg/kg i.v. QWx3, Day 28): 56.86% | Tumor volume (x ± S) ([3]; 1.25 mg/kg i.v. QWx3, Day 28): 485.95 ± 175.25 | Tumor volume ([3]; 1.25 mg/kg i.v., Day 0): 103.28 mm^3 | Tumor volume ([3]; 1.25 mg/kg i.v., Day 4): 156.32 mm^3 | Tumor volume ([3]; 1.25 mg/kg i.v., Day 7): 231.55 mm^3 | Tumor volume ([3]; 1.25 mg/kg i.v., Day 11): 242.12 mm^3 | Tumor volume ([3]; 1.25 mg/kg i.v., Day 14): 291.72 mm^3 | Tumor volume ([3]; 1.25 mg/kg i.v., Day 18): 383.24 mm^3 | Tumor volume ([3]; 1.25 mg/kg i.v., Day 21): 434.92 mm^3 | Tumor volume ([3]; 1.25 mg/kg i.v., Day 25): 478.15 mm^3 | Tumor volume ([3]; 1.25 mg/kg i.v., Day 28): 485.95 mm^3 | Relative tumor volume (x ± S) ([3]; 2.5 mg/kg i.v. QWx3, Day 28): 1.11 ± 0.56 | T/C (%) ([3]; 2.5 mg/kg i.v. QWx3, Day 28): 10.43% | TGI (%) ([3]; 2.5 mg/kg i.v. QWx3, Day 28): 89.57% | Tumor volume (x ± S) ([3]; 2.5 mg/kg i.v. QWx3, Day 28): 102.06 ± 47.51 | Tumor volume ([3]; 2.5 mg/kg i.v., Day 0): 103.26 mm^3 | Tumor volume ([3]; 2.5 mg/kg i.v., Day 4): 149.02 mm^3 | Tumor volume ([3]; 2.5 mg/kg i.v., Day 7): 131.34 mm^3 | Tumor volume ([3]; 2.5 mg/kg i.v., Day 11): 109.62 mm^3 | Tumor volume ([3]; 2.5 mg/kg i.v., Day 14): 116.57 mm^3 | Tumor volume ([3]; 2.5 mg/kg i.v., Day 18): 113.09 mm^3 | Tumor volume ([3]; 2.5 mg/kg i.v., Day 21): 103.18 mm^3 | Tumor volume ([3]; 2.5 mg/kg i.v., Day 25): 92.38 mm^3 | Tumor volume ([3]; 2.5 mg/kg i.v., Day 28): 102.06 mm^3 | Relative tumor volume (x ± S) ([3]; 5 mg/kg i.v. QWx3, Day 28): 0.17 ± 0.07 | T/C (%) ([3]; 5 mg/kg i.v. QWx3, Day 28): 1.60% | TGI (%) ([3]; 5 mg/kg i.v. QWx3, Day 28): 98.40% | Tumor volume (x ± S) ([3]; 5 mg/kg i.v. QWx3, Day 28): 19.00 ± 8.08 | Tumor volume ([3]; 5 mg/kg i.v., Day 0): 103.23 mm^3 | Tumor volume ([3]; 5 mg/kg i.v., Day 4): 139.41 mm^3 | Tumor volume ([3]; 5 mg/kg i.v., Day 7): 111.31 mm^3 | Tumor volume ([3]; 5 mg/kg i.v., Day 11): 62.41 mm^3 | Tumor volume ([3]; 5 mg/kg i.v., Day 14): 42.40 mm^3 | Tumor volume ([3]; 5 mg/kg i.v., Day 18): 34.32 mm^3 | Tumor volume ([3]; 5 mg/kg i.v., Day 21): 30.63 mm^3 | Tumor volume ([3]; 5 mg/kg i.v., Day 25): 20.52 mm^3 | Tumor volume ([3]; 5 mg/kg i.v., Day 28): 19.00 mm^3 | toxic side effects (body weight change) ([3]; 1.25, 2.5, 5 mg/kg i.v. QWx3): without toxic side effects | IC50 (SNU354; Homo sapiens, SNU-354): 0.962 µM | ratio A/B (SNU354; IC50 ratio): 1.28 | ratio A/C (SNU354; IC50 ratio): 0.63
